In assay [1] the test system is porcine pancreatic phospolipase A2. Conditions: Ripka et al., Journal of Cellular Biochemistry, 40, 279-286 (1989); cited from earlier work.
Assay [2] addresses PLA2 from Crotalus adamanteus (Crotalus adamanteus, UniProt P00623). Briefly: biochemical. The arrangement: species or system Crotalus adamanteus (snake venom).
Assay [3] is described as follows: Carrageenan Paw Edema Assay. Type of assay: in vivo, rat (male Sprague-Dawley). The note with it: 50 mg/kg, intraperitoneal, paw volume at three hours; n = 3.
Protocol: The test procedure is as follows: male Caesarian-derived Sprague-Dawley rates from Charles River Laboratories are maintained on rat chow and water ad libidum and on a 12 hour light/12 hour dark cycle until they weight 160-210 grams.
One drop of Tween 80 per 10 ml of methylcellulose and 4 mm glass beads are added to each suspension. Each compound is bead-milled for one hour prior to use.
Dosing is intraperitioneal.
After dosing, all animals are given tap water so that the total volumes of fluid administered to each rat orally is 5.0 ml. This achieves uniform hydration of the rats and thus minimizes variability of the edematous response in the paw.
Sigma Type IV lambda carrageenan (Sigma Chemical Company, St. Louis, Mo., #C3889) is suspended in 0.9% sterile saline usually as a 1% solution (100 mg/10 ml). This preparation is bead-milled one hour prior to use. […]
Immediately following injection initial paw volume readings are taken, and then again three hours later using a Ugo Basile volume plethysmometer. The differences between the initial reading and the three hour reading is then calculated. Means; S.E.M. of these difference are determined for each group. The percent decrease from the control volumes are calculated using the following formula: [formula] Data are evaluated using the Student's t-test and p 0.05 is considered significant.

Structures are written as SMILES.

The term IC50 denotes the concentration that inhibits the measured activity by half. A higher IC50 goes with weaker potency in that assay.

Sequence of PLA2 from Crotalus adamanteus (P00623 17-138 limits assumed): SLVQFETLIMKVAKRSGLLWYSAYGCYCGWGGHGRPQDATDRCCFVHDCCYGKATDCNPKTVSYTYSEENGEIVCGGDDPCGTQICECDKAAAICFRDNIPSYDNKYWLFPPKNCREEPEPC

Regarding `Oc1cccc(CC2CCc3ccccc32)c1` (stereo not drawn), in assay [1], the “inhibitory activity against porcine pancreatic phospolipase A2” value is recorded as “claimed to possess inhibitory activity”.

Molecule `O=CCc1cccc(CC2CCc3ccccc32)c1` (stereo not drawn) [Ex. 12, 3-(2',3'-Dihydroinden-1'-ylmethyl)-phenylacetaldehyde] came in with an IC50 in assay [2] of 2400 nM. For the same molecule, the “Carr. Paw Edemia Inhib. %” value in assay [3] stood at 51%.

Source of the values: patent publication US5290817A, “Substituted 1-benzylindanes and their use as inhibitors of phospholipase A2” (The Du Pont Merck Pharmaceutical Co., priority 1992, dated 1994).
